# Tests used:
# [1] = test system: open gate mutant of the 20S core particle; assay: Chymotryptic-like activity of open gate mutant of yeast 20S (Suc-Leu-Leu-Val-Tyr-AMC); format: biochemical; conditions: in the absence of ATP
# Procedure: (§1) Proteasome activity was quantified by measuring the kinetics of fluorescence release (380 nm excitation, 460 nm emission). Fluorescence was measured at an interval of 30 seconds for 30 minutes with 5 seconds of mixing prior to each cycle. Proteasomes were purified as described previously, [35].
# (§2) After incubation for 15 minutes, enzyme activity was measured by monitoring the fluorescence kinetics for the next 30 minutes. […] Enzyme activity is expressed as percent control without inhibitor. Error bars show standard error of the mean; error bars smaller than symbol size are not visible.
# [2] = target: T1, 20S proteasome core particle (Saccharomyces cerevisiae, UniProt P23724+P30656); assay: Chymotryptic-like activity of purified yeast 20S core particle (Suc-Leu-Leu-Val-Tyr-AMC); format: biochemical
# T1 construct: various proteasome forms purified from yeast; made in house; host or cells: yeast
# Procedure: as §1, §2
# [3] = target: 26S proteasome (Saccharomyces cerevisiae, UniProt P23724+P30656); assay: Chymotryptic-like activity of purified yeast 26S proteasome (Suc-Leu-Leu-Val-Tyr-AMC); format: biochemical; conditions: in the presence of ATP
# Procedure: as §1, §2
# [4] = test system: SH-SY5Y cells; conditions: cited from earlier work
# [5] = test system: HEK293T cell aminopeptidase activity (Ala-AMC cleavage); assay: Aminopeptidase assay with Ala-AMC in HEK293T cell extracts; format: biochemical, human; conditions: HEK293T cell extract; for Enzyme activity (% control with no inhibitor): Ala-AMC
# Procedure: (§3) All enzyme assays described below were performed in the linear range of the assay, as determined from time-course studies. HEK293T cells were lysed by sonication in 50 mM TrisHCl buffer, pH 7.5, containing 40 mM KCl, 5 mM MgCl2, 0.5 mM ATP, and 1 mM DTT (Buffer 1).
# (§4) To measure TPP2, the fluorescent substrate was Ala-Ala-Phe-AMC. Aminopeptidase (AP) assays were performed with Leu-AMC and Ala-AMC, which detect leucine aminopeptidase (LAP), puromycin-sensitive aminopeptidase (PSAP), and other enzymes. To measure the effect of aminopeptidase/proteasome inhibitors on cleavage of Ala-Ala-Phe-AMC and Leu-AMC, 1∶50 dilution of the cell extract was pre-incubated with the inhibitor and Buffer 1 for 30 min, followed by addition of 100 µM final concentration of the respective substrate. For Ala-AMC, the same dilution of the cell extract was pre-incubated with the inhibitor and 50 mM MOPS buffer, pH 7.5, containing 40 mM KCl, 5 mM MgCl2, 0.5 mM ATP, and 1 mM DTT (Buffer 2), followed by addition of 100 µM final concentration of the substrate. After incubation at 37°C for 1 hour, enzyme activity was quantified by fluorescence measurement of the substrate (380 nm excitation, 460 nm emission).
# (§5) Figure 7 Effect of aminopeptidase inhibitors on Ala-AMC and Leu-AMC cleavage. HEK 293T cell extract (panels A–D) or recombinant PSAP (panels E–F) were treated with increasing concentrations of bestatin or puromycin for 30 minutes followed by the addition of substrate and incubation for 1 hour. Enzyme activity was determined by fluorescence measurement of AMC and expressed as percentage enzyme activity relative to the control without inhibitor. (A) Bestatin inhibition of HEK293T cell extract assayed with Ala-AMC. (B) Bestatin inhibition of HEK293T cell extract assayed with Leu-AMC. (C) Puromycin inhibition of HEK293T cell extract assayed with Ala-AMC. (D) Puromycin inhibition of HEK293T cell extract assayed with Leu-AMC. (E) Puromycin inhibition of purified PSAP assayed with Ala-AMC. (F) Puromycin inhibition of purified PSAP assayed with Leu-AMC. Error bars show standard error of mean (n = 4), points without error bars had error ranges smaller than the symbol size. Statistical analysis was performed using Student’s t-test: *, p≤0.05; **, p≤0.01; ***, p≤0.001; ns, no significant difference (p>0.05) versus the control.
# (§6) Figure 8 Effect of proteasome inhibitors on Ala-AMC and Leu-AMC cleavage. HEK 293T cell extract or recombinant PSAP was treated with 10 µM of each of the proteasome inhibitors for 1 hour in addition to a 30 min pre-incubation without the substrate. Enzyme activity was determined by fluorescence measurement of AMC and expressed as percentage enzyme activity relative to the control without inhibitor. Panels A and B represent the effect of proteasome inhibitors on cleavage of Ala-AMC and Leu-AMC respectively, in HEK293T cell extract. […] Error bars show standard error of mean (n = 4). Statistical analysis was performed using Student’s t-test: *, p≤0.05; **, p≤0.01; ***, p≤0.001; ns, no significant difference (p>0.05) versus the control.
# [6] = test system: HEK293T cell aminopeptidase activity (Leu-AMC cleavage); assay: Aminopeptidase assay with Leu-AMC in HEK293T cell extracts; format: biochemical, human; conditions: HEK293T cell extract, 10 µM inhibitor
# Procedure: as §3, §4, §5, §6
# [7] = target: T2, recombinant human puromycin-sensitive aminopeptidase (PSAP, rhNPEPPS) (Homo sapiens, UniProt P55786); assay: Cleavage of Leu-AMC and Ala-AMC by purified recombinant PSAP; format: biochemical; conditions: 10 µM inhibitor, Ala-AMC
# T2 construct: purchased R&D Systems
# Procedure: To measure the effect of inhibitors on cleavage of Leu-AMC and Ala-AMC by purified PSAP, recombinant human PSAP (rhNPEPPS, R&D Systems) was diluted 1∶2000 in Buffer 2 containing 0.1 mg/ml BSA. The enzyme was pre-incubated with the inhibitor and Buffers 1 or 2, followed by addition of 100 µM final concentration of Leu-AMC (to the mix containing Buffer 1) and Ala-AMC (to the mix containing Buffer 2). After incubation at 37°C for 1 hour, PSAP activity was quantified by fluorescence measurement of the substrate (380 nm excitation, 460 nm emission).
# as §5, §6
# [8] = test system: HEK293T cells; conditions: HEK293T cells; cited from earlier work
# [9] = target: T3, Blm10-activated 20S core particle (Saccharomyces cerevisiae, UniProt P23724+P30656); assay: Chymotryptic-like activity of purified yeast Blm10-20S (Suc-Leu-Leu-Val-Tyr-AMC); format: biochemical; conditions: in the absence of ATP
# T3 construct: various proteasome forms purified from yeast; made in house; host or cells: yeast
# Procedure: as §1, §2
# [10] = test system: tripeptidyl peptidase 2 (TPP2); assay: Ala-Ala-Phe-AMC cleavage (TPP2 substrate) in HEK293T cell extracts; format: biochemical, human; conditions: HEK293T cell extract, up to 5 µM
# Procedure: as §3, §4
# Enzyme activity was determined by fluorescence measurement of AMC and expressed as percentage enzyme activity relative to the control lacking inhibitor. […]
# T2 sequence (P55786 whole entry): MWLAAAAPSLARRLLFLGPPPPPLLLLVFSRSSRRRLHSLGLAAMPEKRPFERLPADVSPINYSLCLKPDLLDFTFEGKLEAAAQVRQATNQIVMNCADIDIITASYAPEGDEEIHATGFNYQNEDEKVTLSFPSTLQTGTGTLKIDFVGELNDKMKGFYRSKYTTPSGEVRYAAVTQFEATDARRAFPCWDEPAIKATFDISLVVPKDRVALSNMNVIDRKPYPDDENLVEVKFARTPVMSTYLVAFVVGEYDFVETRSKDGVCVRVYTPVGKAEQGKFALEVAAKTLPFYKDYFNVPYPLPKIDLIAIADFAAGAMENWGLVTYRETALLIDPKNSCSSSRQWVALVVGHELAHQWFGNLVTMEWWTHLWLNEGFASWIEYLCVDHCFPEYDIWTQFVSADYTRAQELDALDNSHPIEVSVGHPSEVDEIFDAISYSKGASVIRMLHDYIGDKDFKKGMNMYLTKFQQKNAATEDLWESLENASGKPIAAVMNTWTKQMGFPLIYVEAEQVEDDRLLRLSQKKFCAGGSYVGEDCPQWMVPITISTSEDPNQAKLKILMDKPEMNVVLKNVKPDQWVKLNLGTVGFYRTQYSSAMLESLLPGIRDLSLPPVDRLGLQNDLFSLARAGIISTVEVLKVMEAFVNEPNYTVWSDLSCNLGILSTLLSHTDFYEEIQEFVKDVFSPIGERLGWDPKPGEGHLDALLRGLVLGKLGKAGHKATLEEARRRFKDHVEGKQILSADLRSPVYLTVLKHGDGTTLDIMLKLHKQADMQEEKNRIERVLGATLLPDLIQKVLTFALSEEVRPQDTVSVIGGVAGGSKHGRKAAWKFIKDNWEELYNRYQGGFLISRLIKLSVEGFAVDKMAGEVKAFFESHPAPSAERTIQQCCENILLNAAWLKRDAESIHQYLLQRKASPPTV
compound,measurement,setting,value
CC(C)C[C@H](NC(=O)[C@H](Cc1ccccc1)NC(=O)c1cnccn1)B(O)O [bortezomib],"inhibition of chymotryptic-like activity, compared among 20S forms",[1],comparable potency
same,"inhibition of chymotryptic-like activity, compared among 20S forms",[2]; in the absence of ATP,comparable potency
same,"inhibition of chymotryptic-like activity, 20S compared with 26S",[2]; in the presence of ATP,comparable inhibition
same,"inhibition of chymotryptic-like activity, 26S compared with 20S",[3],comparable inhibition
same,change in levels of intracellular peptides (peptidome),[4],increase in the levels of most intracellular peptides
same,effect on cleavage of Ala-AMC,[5]; 10 µM inhibitor,partially inhibited
same,Enzyme activity (% control with no inhibitor),[5]; bestatin 50 µM together with bortezomib 10 µM,14.8±0.6 % control with no inhibitor
same,Enzyme activity (% control with no inhibitor),[5]; bestatin 50 µM together with bortezomib 50 µM,14.8±0.8 % control with no inhibitor
same,effect on cleavage of Leu-AMC,[6],partially inhibited
same,effect on cleavage of Ala-AMC by purified PSAP,[7],no significant effect
same,change in levels of intracellular peptides (peptidome),[8],increase in the levels of most intracellular peptides
same,"inhibition of chymotryptic-like activity, compared among 20S forms",[9],comparable potency
same,inhibition of Ala-Ala-Phe-AMC cleavage,[10],did not show significant inhibition

# Source: PMC4117522, “Proteasome Inhibitors Alter Levels of Intracellular Peptides in HEK293T and SH-SY5Y Cells” (PLoS ONE, 2014)
